Results reported in patent US20130178483A1, “Methods and Compositions for Inhibition of Bone Resorption” (Pharmacyclics, Inc., priority 2011, published 2013).

What was measured:
[1] = 24 h post dose
[2] = system: BCR-activated calcium flux in Ramos cells; assay: BCR-induced calcium flux assay in anti-IgM stimulated Ramos cells; settings: Homo sapiens, read-out: Ramos Cell Ca Flux IC50 (nM)
[3] = system: INA-6 MM cells in implanted human bone; assay: SCID-hu model of human multiple myeloma bone disease; assay type: in vivo, SCID-hu mice; settings: 12 mg/kg, vs vehicle control
From the text: FIG. 22A-22F show inhibition of multiple myeloma (MM) cell growth and MM-induced bone lysis in a murine model of human MM by administration of a Btk inhibitor described herein. […] Tissue slides were stained with H&E and immunohistochemically analyzed for CD138 (MM), TRAP(OC), and ALP (OB). Original magnification, ×200 except for ALP (×400). […] Effects of Btk inhibitor treatment were also quantitated in the left (mouse L) and right (mouse R) normal mouse extremities (FIG. 22F)
Btk inhibition by the compounds described herein and suppression of MM cell growth and […] were studied in vivo in a mouse model of MM bone disease, the SCID-hu model (FIG. 22A). MM cell growth was quantitated by measuring soluble IL6R (sIL6R) secreted by INA-6 MM cells in murine blood, and mice were treated with a compound of Formula (A), (B), (C), or (D) following first detection of tumor growth. […] Histologic analysis and immunohistochemistry for CD138 and TRAP staining confirmed decreased numbers of MM cells and reduced bone resorption activity in the human bones retrieved from the mice treated with the compound, as compared with the control group (FIG. 22B).

[4] = system: human monocyte derived osteoclasts; assay: Human monocyte derived osteoclastogenesis (M-CSF/RANKL), TRAP and actin staining; assay type: cell-based
From the text: Further, as depicted in FIG. 18, and FIG. 19, the BTK inhibitors described herein inhibit RANKL induced Btk, PLC-g, Erk and NF-kB activation of osteoclasts derived from human monocytes and murine RAW cells.
We confirmed by immunoblotting that activation of Btk mediates osteoclastogenesis induced by M-CSF and RANKL in CD14+ OC. precursor cells. Phosphorylation of Btk and its downstream PLCγ2 was induced by M-CSF/RANKL in CD14+ monocytes from human donors and mouse RAW 264.7 cells (FIG. 20A). […] At the end of 2-week culture of M-CSF/RANKL-stimulated normal donor monocytes (donor number>4) in plastic tissue culture plates, we observed a significant reduction in multinucleated mature Osteoclast (OC) numbers (TRAP+, >3 nuclei and >50 μm per OC cell, p<0.01), as well as irregular TRAP staining pattern of multinucleated OC influenced by the BtK inhibitor, in a dose-dependent fashion (FIG. 20C-E). To further assess the effects of PCI-32765 on osteoclastogenesis, OC precursor cells from human donors were cultured on glass cover slips, followed by immunofluorescence staining for actin cytoskeleton and pit formation assay for bone resorption activity. […] Most importantly, the Btk inhibitors described herein profoundly diminished bone erosion area formed by OCs cultured on dentine slices in pit formation assays, with or without dexamethasone (FIG. 21D).

With `C=CC(=O)N1CCCC(n2nc(-c3ccc(Oc4ccccc4)cc3)c3c(N)ncnc32)C1` (stereo not drawn) [Compound 4, 1-(3-(4-amino-3-(4-phenoxyphenyl)-1H-pyrazolo[3,4-d]pyrimidin-1-yl)piperidin-1-yl)prop-2-en-1-one] the “levels twenty four hours post dose” value [1] was “below the level of quantitation”.
With `CN(C)C/C=C/C(=O)N1CCCC(n2nc(-c3ccc(Oc4ccccc4)cc3)c3c(N)ncnc32)C1` (stereo not drawn) [Compound 15, (E)-1-(3-(4-amino-3-(4-phenoxyphenyl)-1H-pyrazolo[3,4-d]pyrimidin-1-yl)piperidin-1-yl)-4-(dimethylamino)but-2-en-1-one] the IC50 [2] was 36 nM.
With `C=CC(=O)N1CCC[C@@H](n2nc(-c3ccc(Oc4ccccc4)cc3)c3c(N)ncnc32)C1` [PCI-32765] the “MM-induced osteolysis / bone lysis in implanted human bone” value ([3]; micro-CT) was “significantly reduced osteolysis”, the “osteogenic activity (ALP expression, ALP+/BS) in implanted human bone” value ([3]; p<0.01) was “enhanced osteogenic activity” and the “numbers of mature OC, treated versus normal OC cultures” value ([4]; human OC precursor cells on glass cover slips) was “Significantly reduced numbers of mature OC”. The “spreading area per cell and number of nuclei per OC” value ([4]; human OCs on glass cover slips, p<0.01) was “expanded spreading area per cell”.
